Data from patent US20250082625A1, “NOVEL THERAPY” (priority 2016, published 2025).
Where no end group is shown, it is not given here.

Legend:
HTB-9 cells [1] = assay: Treatment of HTB-9 bladder epithelial cells with exogenous recombinant SP or IL-1β; format: cell-based, human; conditions: four hours
Method: (§1) HTB-9 cells and differentiated SH-SY5Y cells were pre-treated with SR140333, or IL-1RA Anakinra (500 ng/ml) for 30 minutes before infection with CY17 (10^4 cfu/ml, four hours), or treatment with exogenous recombinant SP (R&D System) or IL-1β (Abnova) (20 ng/ml, four hours). After infection, cells were infected with CY17 and the NK1R, SP and IL-1β response was quantified by confocal imaging. IL-1β- and SP secretion was quantified by ELISA, in culture supernatants. In nerve- and bladder epithelial cells, SR140333 inhibited the SP/NK1R response to infection, consistent with an autocrine activation loop involving SP/NK1R as shown by confocal imaging (FIG. 10a). […] SP activated IL-1β expression and secretion in bladder epithelial cells but had no effect on IL-1β on nerve cells. (*=P<0.05, **=P<0.01, ***=P<0.001, Two-tailed t-test for confocal imaging data and Mann-Whitney U-test for ELISAs.

[2] = test system: differentiated SH-SY5Y cells; assay: Treatment of differentiated SH-SY5Y nerve cells with exogenous recombinant SP or IL-1β; format: cell-based, human; conditions: four hours
Method: as §1

[3] = test system: differentiated SH-SY5Y cells; assay: Pre-treatment of differentiated SH-SY5Y nerve cells before CY17 infection (confocal imaging, ELISA); format: cell-based, human
Method: (§2) Cells were grown on 8-well chamber slides (6×10^4 cells/well, Thermo Fischer Scientific) or in 6-well plates (6×10^5 cells/well) for 16 hours in media supplemented with 10% FBS. Media were removed, and cells were washed with PBS before adding medium without FBS. Cells were infected with bacteria diluted to appropriate concentration in PBS and incubated for one or four hours at 37° C. with 5% CO2.
(§3) The two cell types were first infected with increasing concentrations of the acute cystitis strain E. coli CY-17 (10^2-10^4 cfu/ml) for 1 to 4 hours. NK1R and SP expression was used as a read out of the cellular response. […] A concentration of 10^4 cfu/ml of CY-17 and four hours of infection was chosen for further studies. Under these conditions, there was little cytotoxicity. To further characterize the neuropeptide response to bladder infection, the in vitro analysis was extended to include GALR2, OrxR2 and TAS2R43. Confocal microscopy was used in this instance. Infected cells were fixed (3.7% formaldehyde, 15 min), permeabilized (0.25% triton X-100, 5% FBS, 10 min), blocked (5% FBS, 1 h at RT), incubated overnight with primary antibodies in 5% FBS: Anti-NK1R (1:100, SC-15323, Santa Cruz), anti-SP, (1:200, ORB11399, Biorbyt), anti-orexin receptor 2, (1:200, AB10470, Abcam), anti-TAS2R43, (1:200, AB65513, Abcam), and anti-GALR2 antibodies (1:100, AB136264, Abcam). Appropriate fluorescently labeled secondary antibodies were used (Alexa Fluor® 488 goat anti-rabbit IgG, A-11034; Life Technologies, (1 hour at Room Temperature). After nuclear staining (DRAQ5, 1:1000, Abcam) slides were mounted (Fluoromount, Sigma-Aldrich), imaged by laser scanning confocal microscopy (MSM510 META confocal microscope, Carl Zeiss) and quantified by ImageJ software 1.46r (NIH).
as §1
Furthermore, to examine if the effects of NK1R inhibition can be generalized, we used two additional NK1R antagonists (CP99994 and L703.303). […]

HTB-9 cells [4] = assay: Pre-treatment of HTB-9 bladder epithelial cells before CY17 infection (confocal imaging, ELISA); format: cell-based, human; conditions: for IL-1β secretion (ELISA, culture supernatants) / SP secretion (ELISA, culture supernatants): pre-treated before CY17 infection
Method: as §2, §3, §1
Furthermore, to examine if the effects of NK1R inhibition can be generalized, we used two additional NK1R antagonists (CP99994 and L703.303). HTB-9 cells and differentiated SH-SY5Y cells were pre-treated with SR140333, CP99994, L-703.606 or IL-1RA Anakinra (500 ng/ml) for 30 minutes before infection with CY17 (10^4 cfu/ml, four hours), or treatment with exogenous recombinant SP (R&D System) or IL-1β (Abnova) (20 ng/ml, four hours).

Asc^−/− mice [5] = conditions: cited from earlier work
Asc^−/− mice [6] = assay: Anakinra treatment of infected Asc^−/− mice (bladder NK1R/SP staining, disease severity); format: in vivo
Method: FIG. 8a The mice were pre-treated with interleukin 1 receptor antagonist (IL1-RA) Anakinra, 30 min before infection and daily after infection with E. coli CFT073 (1 mg in 100 μl of PBS i.p. per mouse). FIG. 8b Reduction in NK1R in Anakinra® treated compared to untreated control mice. Bladder tissue sections from infected Asc^−/− mice treated with Anakinra® were stained for NK1R. […] FIG. 8c Reduction in SP staining in Anakinra® treated Asc^−/− mice compared to untreated mice. […] Sections were obtained from 3 mice per group; one of two experiments is shown. *=p<0.05, **=p<0.01, two tailed t-test). FIG. 8d The disease severity score was reduced by the Anakinra (n=3-4, ***P<0.001, compared to untreated Asc^−/− mice, Fisher's exact test, Reference for (d):.
To confirm the importance of Il1b for the neuropeptide response, susceptible Asc^−/− mice were treated with the IL-1 receptor (IL-1R) antagonist Anakinra® (FIG. 8a). This therapeutic approach was recently shown to be effective against acute cystitis, as Anakinra® attenuated the hyper-inflammatory response to infection and prevented bladder pathology in susceptible mice.
These findings were confirmed in vitro by pretreating nerve cells and bladder epithelial cells with Anakinra (500 ng/ml) followed by CY-17 infection (10^4 CFU/ml, 4 hours).

[7] = exogenous recombinant SP 20 ng/ml
[8] = susceptible mice, recently shown
[9] = infected Asc^−/− mice, 1 mg in 100 μl PBS i.p. 30 min before and daily after infection, vs infected controls without therapy

Compound: SP: exogenous recombinant SP (R&D System), ligand of NK1R (RPKPQQFFGLM-NH2; ends and bridges not checked; UniProt P20366 58-68, looked up)
- IL-1β expression and secretion (HTB-9 cells [1]; [7]): activated
- IL-1β [2, 7]: no effect

Compound: IL-1β: exogenous recombinant IL-1β (Abnova)
- SP/NK1R expression (HTB-9 cells [1]; exogenous IL-1β 20 ng/ml): increased
- SP/NK1R expression ([2]; exogenous IL-1β 20 ng/ml): increased

Compound: Anakinra: interleukin 1 receptor antagonist (IL1-RA) Anakinra
- NK1R staining ([3]; Anakinra 500 ng/ml pretreatment, CY-17 infection (10^4 CFU/ml, 4 hours)): marked reduction
- SP/NK1R response to infection (confocal imaging) ([3]; pre-treated 30 minutes before CY17 (10^4 cfu/ml, four hours)): no effect
- IL-1β secretion (ELISA, culture supernatants) (HTB-9 cells [4]): inhibited
- NK1R expression / staining (HTB-9 cells [4]; pretreatment prior to CY17 infection (10^4 CFU/ml, 4 hours)): marked reduction
- disease severity score (Asc^−/− mice [5]; compared to untreated Asc^−/− mice, n=3-4, P<0.001): reduced
- bladder pathology (Asc^−/− mice [5]; [8]): prevented
- hyper-inflammatory response to infection (Asc^−/− mice [5]; [8]): attenuated
- NK1R response (mucosal NK1R staining, bladder sections) (Asc^−/− mice [6]; [9]): marked reduction
- SP response (mucosal SP staining, bladder sections) (Asc^−/− mice [6]; [9]): marked reduction
- baseline NK1R staining (Asc^−/− mice [6]; uninfected mice): reduced
- baseline SP staining (Asc^−/− mice [6]; uninfected mice): reduced

Compound: COc1ccccc1CN[C@H]1CCCN[C@H]1c1ccccc1 [CP99994, (2S,3S)-N-[(2-Methoxyphenyl)methyl]-2-phenyl-3-piperidinamine]
- IL-1β secretion (ELISA, culture supernatants) (HTB-9 cells [4]): decreased
- SP secretion (ELISA, culture supernatants) (HTB-9 cells [4]): decreased

Compound: Ic1ccccc1CN[C@@H]1C2CCN(CC2)[C@@H]1C(c1ccccc1)c1ccccc1 [L703.606, (2R,3R)-2-benzhydryl-N-[(2-iodanylphenyl)methyl]-1-azabicyclo[2.2.2]octan-3-amine]
- IL-1β secretion (ELISA, culture supernatants) (HTB-9 cells [4]): decreased
- SP secretion (ELISA, culture supernatants) (HTB-9 cells [4]): decreased
